# Reference: the supplement of paper PMC8149375
# Legend:
# Details in all cases: treatment: drug + dasatinib (fixed dose, not stated); 5 days
# [1] = system: A498; experiment: minimum viability across doses, drug + dasatinib, relative to DMSO (fraction); higher = less growth inhibition
# Method: (§1)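 Primary HTS combination arm: 8 RCC cell lines treated with 8 doses (up to 10 uM) of each library drug plus a fixed dose of dasatinib (dose not stated) for 5 days; viability read by CellTiter-Glo and normalised to DMSO. GI50 was fitted with XLfit, AUC is the area under the dose-response curve, and minimum viability is the lowest fraction of DMSO viability across doses.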
# [2] = system: SN12C; experiment: as above
# Method: as §1
# [3] = system: 786-O; experiment: as above
# Method: as §1
# [4] = system: ACHN; experiment: as above
# Method: as §1
# [5] = system: CAKI-1; experiment: as above
# Method: as §1
# [6] = system: UO-31; experiment: as above
# Method: as §1
# [7] = system: 769-P; experiment: as above
# Method: as §1
# [8] = system: TK-10; experiment: as above
# Method: as §1
# [9] = system: A498; experiment: AUC of dose-response viability curve, drug + dasatinib, normalised to DMSO (arbitrary (AUC of normalised viability)); higher = less growth inhibition
# Method: as §1
# [10] = system: SN12C; experiment: as above
# Method: as §1
# [11] = system: 786-O; experiment: as above
# Method: as §1
# [12] = system: ACHN; experiment: as above
# Method: as §1
# [13] = system: CAKI-1; experiment: as above
# Method: as §1
# [14] = system: UO-31; experiment: as above
# Method: as §1
# [15] = system: 769-P; experiment: as above
# Method: as §1
# [16] = system: TK-10; experiment: as above
# Method: as §1
# [17] = system: A498; experiment: GI50 of drug in presence of dasatinib; higher = less potent
# Method: as §1
# [18] = system: SN12C; experiment: as above
# Method: as §1
# [19] = system: 786-O; experiment: as above
# Method: as §1
# [20] = system: ACHN; experiment: as above
# Method: as §1
# [21] = system: CAKI-1; experiment: as above
# Method: as §1
# [22] = system: UO-31; experiment: as above
# Method: as §1
# [23] = system: 769-P; experiment: as above
# Method: as §1
# [24] = system: TK-10; experiment: as above
# Method: as §1
GI50 of drug [19] [µM],GI50 of drug [20] [µM],SMILES,minimum viability across doses [1],minimum viability across doses [2],minimum viability across doses [3],minimum viability across doses [4],minimum viability across doses [5],minimum viability across doses [6],minimum viability across doses [7],minimum viability across doses [8],AUC of dose-response viability curve [9],AUC of dose-response viability curve [10],AUC of dose-response viability curve [11],AUC of dose-response viability curve [12],AUC of dose-response viability curve [13],AUC of dose-response viability curve [14],AUC of dose-response viability curve [15],AUC of dose-response viability curve [16],GI50 of drug [17] [µM],GI50 of drug [18] [µM],GI50 of drug [21] [µM],GI50 of drug [22] [µM],GI50 of drug [23] [µM],GI50 of drug [24] [µM]
> 10,> 10,CC1(C)CNc2cc(NC(=O)c3cccnc3NCc3ccncc3)ccc21.O=P(O)(O)O.O=P(O)(O)O [Motesanib Diphosphate] + Cc1nc(Nc2ncc(C(=O)Nc3c(C)cccc3Cl)s2)cc(N2CCN(CCO)CC2)n1 [dasatinib],0.877,0.711,0.714,0.512,0.542,0.944,0.599,0.724,3.26,2.56,2.74,2.3,2.39,3.93,2.34,2.87,> 10,> 10,> 10,> 10,> 10,> 10
0.0238,0.0314,FC(F)(F)c1ccc(/C=C/c2nc(COc3ccc(CCCCn4ccnn4)cc3)co2)cc1 [Mubritinib (TAK 165)] + Cc1nc(Nc2ncc(C(=O)Nc3c(C)cccc3Cl)s2)cc(N2CCN(CCO)CC2)n1 [dasatinib],0.231,0.0505,0.0257,0.183,0.543,0.124,0.539,0.168,1.99,1.09,0.96,1.26,2.17,1.66,2.32,1.56,0.243,0.0416,> 10,0.0747,> 10,0.146
3.28,0.129,Nc1ncnc2c1c(-c1cccc(OCc3ccccc3)c1)cn2[C@H]1C[C@H](CN2CCCC2)C1 [NVP-ADW742] + Cc1nc(Nc2ncc(C(=O)Nc3c(C)cccc3Cl)s2)cc(N2CCN(CCO)CC2)n1 [dasatinib],0.296,0.48,0.172,0.147,0.0883,0.0171,0.278,0.124,3.18,2.44,2.33,1.77,2,2.57,2.45,2.44,8.96,> 10,1.29,2.49,5.14,3.39
